Measured values: ChEMBL document CHEMBL1154921, “Phenylpropanoyl esters from Horseweed (Conyza canadensis) and their inhibitory effects on catecholamine secretion” (J Nat Prod, 2010)

What was measured:
[1] = Inhibition of acetylcholine-induced calcium flux in calcium 4 reagent loaded bovine chromaffin cells at 1 to 100 uM; format: functional; conditions: Bos taurus
[2] = Inhibition of acetylcholine-induced catecholamine secretion in bovine chromaffin cells after 10 mins by HPLC coupled electrochemical detector; format: functional, cell-based; conditions: Bos taurus

COC(=O)[C@]12C[C@@H](OC(=O)/C=C/c3ccc(O)c(OC)c3)[C@@H](O)[C@H](O1)[C@@H](COC(=O)/C=C/c1ccc(O)c(O)c1)O2 (relative stereo)
IC50 [1]: 59.8 µM
IC50 [2]: 94.7 µM
